Measurements: patent US11103588B2, “Methods and compositions relating to carnitine-derived materials” (Wayne State University, priority 2017, dated 2021)
Structures can show the parent of a compound that is named as a salt. Where two headings read alike, the source gives them in different places.

Details: for Solubility in ACN / Solubility in CHCl3 / Solubility in EA: 80 mg/ml
Source text: It is critical to select the right solvent for the one-step reaction to obtain L-carnitineMA monomer. Acryloyl chloride has to be dissolved in a non-protic solvent to preserve its reactivity.

## C[N+](C)(C)C[C@H](O)CC(=O)[O-].Cl [L-carnitine hydrochloride]
40° C.
  Solubility in ACN: No (No: not soluble)
  Solubility in EA: No (No: not soluble)
80° C.
  Solubility in ACN: No (No: not soluble)
  Solubility in EA: No (No: not soluble)
  Solubility in DMF (in words): partially dissolved
CHCl3, 40° C.
  Solubility in CHCl3: No (No: not soluble)
CHCl3, 80° C.
  Solubility in CHCl3: No (No: not soluble)

## C[N+](C)(C)C[C@H](O)CC(=O)[O-] [L-carnitine inner-salt]
40° C.
  Solubility in ACN: No (No: not soluble)
  Solubility in EA: No (No: not soluble)
80° C.
  Solubility in ACN: No (No: not soluble)
  Solubility in EA: No (No: not soluble)
  Solubility in DMF (in words): totally insoluble
CHCl3, 40° C.
  Solubility in CHCl3: No (No: not soluble)
CHCl3, 80° C.
  Solubility in CHCl3: No (No: not soluble)
